Here are results for 48 compounds from the C3SDB collision cross section collection.

“And” between values parts separate entries of the source, which are not always exact repeats. Identical values can stand only once.

For this data set the following is noted: instrument: DT, single field, calibrated with ESI Low Concentration Tuning Mix (Agilent).

Turning to `CCOC(=O)Cc1c[nH]c2ccccc12` [ETHYL 3-INDOLEACETATE], the “collision cross section (N2)” value stood at 145.2 Å² ([M+H]+), 153.6 Å² ([M+Na]+) and 145.6 Å² ([M-H]-).

Regarding `Cc1cc2nc3c(=O)[nH]c(=O)nc-3n(C[C@H](O)[C@H](O)[C@H](O)COP(=O)(O)OP(=O)(O)OC[C@H]3O[C@@H](n4cnc5c(N)ncnc54)[C@H](O)[C@@H]3O)c2cc1C` [FAD], the “collision cross section (N2)” value reads like this: ([M+H]+) 249 Å²; ([M+Na-2H]-) 256.2 Å²; ([M+Na]+) 250.3 Å²; ([M-H]-) 238.7 Å².

As for `COc1cc(/C=C/C(=O)O)ccc1O` [FERULATE], for the setting “[M-H]-”, the “collision cross section (N2)” value is 139.8 Å².

As to `OCC1(O)OC[C@@H](O)[C@@H](O)[C@@H]1O` (stereo partly drawn) [FRUCTOSE], the “collision cross section (N2)” value ([M+Na]+) is recorded as 141.5 Å².

With `O=P(O)(O)O[C@H]1O[C@H](CO)[C@H](O)[C@H](O)[C@H]1O` [GALACTOSE 1-PHOSPHATE], the “collision cross section (N2)” value ([M+K]+) turned out to be 158.5 Å², the “collision cross section (N2)” value ([M+Na]+) came out at 157.7 Å² and the “collision cross section (N2)” value ([M-H]-) was 148.2 Å².

For `OC[C@H]1OC(O)[C@H](O)[C@@H](O)[C@H]1O` (stereo partly drawn) [GALACTOSE], the “collision cross section (N2)” value ([M+Na]+) turned out to be 141.9 Å².

Regarding `O=C(O)[C@H]1O[C@H](O)[C@H](O)[C@@H](O)[C@H]1O` [GALACTURONATE], the “collision cross section (N2)” value ([M+Na]+) is 145.3 Å² and the “collision cross section (N2)” value ([M-H]-) was found to be 131.3 Å².

Take `CCCCC/C=C\C/C=C\C/C=C\CCCCC(=O)[O-]` [GAMMA-LINOLENATE]: the “collision cross section (N2)” value ([M-H]-) came out at 174.8 Å².

For the compound `CC(C)=CCC/C(C)=C/COP(=O)(O)OP(=O)(O)O` [GERANYL-PP], the “collision cross section (N2)” value was determined as 173.8 Å² ([M+Na-2H]-) and 167.2 Å² ([M-H]-).

As to `N[C@@H](C(=O)O)[C@@H](O)[C@H](O)[C@H](O)CO` [GLUCOSAMINATE], the “collision cross section (N2)” value is 141.8 Å² ([M+H]+), 146.5 Å² ([M+Na]+) and 135.7 Å² ([M-H]-).

Regarding `N[C@@H]1[C@@H](O)[C@H](O)[C@@H](COP(=O)(O)O)O[C@@H]1O` [GLUCOSAMINE 6-PHOSPHATE], the “collision cross section (N2)” value ([M-H]-) is given as 148.1 Å².

With `O=C(O)[C@H]1OC(O)[C@H](O)[C@@H](O)[C@@H]1O` (stereo partly drawn) [GLUCURONATE], the “collision cross section (N2)” value is, setting by setting: ([M+Na]+) 150.2 Å²; ([M-H]-) 131.7 Å².

As to `O=C(O)CCCC(=O)O` [GLUTARATE], the “collision cross section (N2)” value is, setting by setting: ([M+Na-2H]-) 129 Å² and 129.1 Å²; ([M-H]-) 121.3 Å² and 121.4 Å².

For the compound `O=C(O)[C@H](O)CO` [GLYCERATE], for the setting “[M-H]-”, the “collision cross section (N2)” value is reported as 112.6 Å².

For `CCCCCCCCCCCCCC(=O)OCC(COC(=O)CCCCCCCCCCCCC)OC(=O)CCCCCCCCCCCCC` [GLYCERYL TRIMYRISTATE], for the setting “[M+Na]+”, the “collision cross section (N2)” value was determined as 291.4 Å².

For `Nc1nc(=O)c2[nH]cnc2[nH]1` [GUANINE], the “collision cross section (N2)” value reads like this: ([M+K]+) 136 Å²; ([M+Na]+) 137.8 Å².

In the case of `Nc1nc(=O)c2ncn([C@@H]3O[C@H](COP(=O)(O)O)[C@@H](O)[C@H]3O)c2[nH]1` [GUANOSINE MONOPHOSPHATE], the “collision cross section (N2)” value ([M+H]+) came to 179.5 Å², the “collision cross section (N2)” value ([M+Na-2H]-) is reported as 172.1 Å², the “collision cross section (N2)” value ([M+Na]+) is given as 174.3 Å² and the “collision cross section (N2)” value ([M-H]-) was found to be 169.4 Å².

Turning to `CCCCCCCCCCCCCCCCC(=O)[O-]` [HEPTADECANOATE], the “collision cross section (N2)” value ([M-H]-) is reported as 172.9 Å².

For the compound `O=C(O)Cc1cc(O)ccc1O` [HOMOGENTISATE], the “collision cross section (N2)” value ([M-H]-) worked out at 132.4 Å².

With `NCCS(=O)O` [HYPOTAURINE], the “collision cross section (N2)” value by setting is: ([M+H]+) 125.4 Å²; ([M-H]-) 132.6 Å².

As for `NC(=O)Cc1c[nH]c2ccccc12` [INDOLE-3-ACETAMIDE], the “collision cross section (N2)” value is recorded as 137 Å² ([M+H]+), 143.4 Å² ([M+Na]+) and 135.5 Å² ([M-H]-).

Take `OCCc1c[nH]c2ccccc12` [INDOLE-3-ETHANOL]: the “collision cross section (N2)” value is, setting by setting: ([M+H]+) 133.6 Å²; ([M-H]-) 132.6 Å².

On to `COC(=O)Cc1c[nH]c2ccccc12` [INDOLE-3-METHYL ACETATE], for which the “collision cross section (N2)” value reads like this: ([M+H]+) 138.7 Å²; ([M+Na]+) 147.2 Å²; ([M-H]-) 141.1 Å².

With `O=C(O)C(=O)Cc1c[nH]c2ccccc12` [INDOLE-3-PYRUVATE], the “collision cross section (N2)” value ([M-H]-) was 137.6 Å².

As to `O=CCc1c[nH]c2ccccc12` [INDOLEACETALDEHYDE], the “collision cross section (N2)” value is recorded as 132.3 Å² ([M+H]+) and 130.7 Å² ([M-H]-).

As to `CC[C@H](C)[C@H](N)C(=O)O` [ISOLEUCINE], the “collision cross section (N2)” value ([M+H]+) turned out to be 133 Å² and the “collision cross section (N2)” value ([M-H]-) was determined as 129.3 Å².

Turning to `O=C1O[C@H]([C@@H](O)CO)[C@H](O)[C@@H]1O` [L-GULONOLACTONE], the “collision cross section (N2)” value is on record as 133.5 Å² ([M+H2O-H]-), 140.8 Å² ([M+Na]+) and 129.6 Å² ([M-H]-).

Consider `NC(=O)[C@@H](N)Cc1c[nH]c2ccccc12` [L-TRYPTOPHANAMIDE], for which the “collision cross section (N2)” value came to 150.5 Å² ([M+H]+), 147.7 Å² ([M+Na]+) and 143.3 Å² ([M-H]-).

For `CCCCCCCCCCCC(=O)O[C@H](CC(=O)[O-])C[N+](C)(C)C` [LAUROYLCARNITINE], the “collision cross section (N2)” value runs as follows: ([M+H]+) 199 Å²; ([M+Na]+) 209.4 Å².

Turning to `Cc1cc2nc3[nH]c(=O)[nH]c(=O)c3nc2cc1C` [LUMICHROME], the “collision cross section (N2)” value is, setting by setting: ([M+H20-H]-) 160.2 Å²; ([M+H]+) 153.1 Å²; ([M+Na]+) 167.7 Å²; ([M-H]-) 155.1 Å².

On to `O=P(O)(O)OC[C@H]1OC(O)[C@@H](O)[C@@H](O)[C@@H]1O` (stereo partly drawn) [MANNOSE 6-PHOSPHATE], for which the “collision cross section (N2)” value is, setting by setting: ([M+Na-2H]-) 156.7 Å²; ([M+Na]+) 156.1 Å²; ([M-H]-) 146.2 Å².

As for `CS(=N)(=O)CCC(N)C(=O)O` (stereo not drawn) [METHIONINE SULFOXIMINE], the “collision cross section (N2)” value by setting is: ([M+H]+) 136.9 Å²; ([M+Na]+) 138.1 Å²; ([M-H]-) 136.2 Å².

Regarding `CSCC[C@H](N)C(=O)O` [METHIONINE], the “collision cross section (N2)” value worked out at 133.1 Å² ([M+H]+) and 132 Å² ([M-H]-).

For `COC(=O)CCCN` [METHYL 4-AMINOBUTYRATE], for the setting “[M+H]+”, the “collision cross section (N2)” value amounted to 124.6 Å².

As for `CO[C@@H]1O[C@H](CO)[C@H](O)[C@H](O)[C@H]1O` [METHYL GALACTOSIDE], the “collision cross section (N2)” value ([M+Na]+) is reported as 145.4 Å².

Regarding `CC(C)=CCNc1ncnc2nc[nH]c12` [N6-(DELTA2-ISOPENTENYL)-ADENINE], the “collision cross section (N2)” value reads like this: ([M+H]+) 145.5 Å²; ([M-H]-) 150.5 Å².

As for `CN(C)C(N)=NCCC[C@H](N)C(=O)O` [N,N-DIMETHYLARGININE], the “collision cross section (N2)” value ([M+H]+) was found to be 143.9 Å² and the “collision cross section (N2)” value ([M+Na]+) is 157.2 Å².

`CC(=O)N[C@@H](C)C(=O)O` [N-ACETYLALANINE]: the “collision cross section (N2)” value ([M+Na]+) was determined as 134.7 Å².

As for `CC(=O)N[C@@H]1[C@@H](O)[C@@H](O)[C@@H](CO)O[C@@H]1O` [N-ACETYLGALACTOSAMINE], the “collision cross section (N2)” value runs as follows: ([M+K]+) 151.4 Å²; ([M+Na]+) 150.3 Å².

Turning to `CC(=O)N[C@@H]1[C@@H](O)[C@H](O)[C@@H](CO)O[C@H]1O` [N-ACETYLGLUCOSAMINE], the “collision cross section (N2)” value runs as follows: ([M+Na]+) 150.7 Å² and 157.8 Å²; ([M-H]-) 152.5 Å².

As for `CC(=O)N[C@@H]1C(O)O[C@H](CO)[C@@H](O)[C@@H]1O` (stereo partly drawn) [N-ACETYLMANNOSAMINE], the “collision cross section (N2)” value ([M+Na]+) turned out to be 150.2 Å².

For the compound `CC(=O)NCCCCN` [N-ACETYLPUTRESCINE], the “collision cross section (N2)” value stood at 128.6 Å² ([M+H]+) and 134.5 Å² ([M+Na]+).

As to `CC(=O)N[C@@H](CO)C(=O)O` [N-ACETYLSERINE], the “collision cross section (N2)” value ([M+Na]+) is 133.4 Å² and the “collision cross section (N2)” value ([M-H]-) amounted to 127.2 Å².

As for `CC(=O)NCCc1c[nH]c2ccc(O)cc12` [N-ACETYLSEROTONIN], the “collision cross section (N2)” value by setting is: ([M+H]+) 149.6 Å²; ([M+Na]+) 153.5 Å²; ([M-H]-) 150.5 Å².

Turning to `CC(=O)NC(Cc1c[nH]c2ccccc12)C(=O)O` (stereo not drawn) [N-ACETYLTRYPTOPHAN], the “collision cross section (N2)” value is reported as 153.8 Å² ([M+H]+), 158.5 Å² ([M+Na]+) and 158.3 Å² ([M-H]-).

`CC(=O)NC(CCCCN)C(=O)O` (stereo not drawn) [N-ALPHA-ACETYLLYSINE]: the “collision cross section (N2)” value reads like this: ([M+H]+) 145.5 Å²; ([M+Na]+) 144.4 Å²; ([M-H]-) 145 Å².

Regarding `CN[C@H](CC(=O)O)C(=O)O` [N-METHYLASPARTATE], the “collision cross section (N2)” value ([M+H]+) was 130 Å², the “collision cross section (N2)” value ([M+Na]+) worked out at 134.7 Å² and the “collision cross section (N2)” value ([M-H]-) is given as 124 Å².

On to `NC(=O)c1ccc[n+]([C@@H]2O[C@H](COP(=O)(O)OP(=O)(O)OC[C@H]3O[C@@H](n4cnc5c(=O)nc[nH]c54)[C@H](O)[C@@H]3O)[C@@H](O)[C@H]2O)c1` [NICOTINAMIDE HYPOXANTHINE DINUCLEOTIDE], for which the “collision cross section (N2)” value ([M+H]+) was 221.1 Å², the “collision cross section (N2)” value ([M+Na-2H]-) is 217.2 Å², the “collision cross section (N2)” value ([M+Na]+) is recorded as 229.7 Å² and the “collision cross section (N2)” value ([M-H]-) is listed as 217.7 Å².
